How the values were obtained:
[1] = cited from earlier work; for specific absorbance at the absorbance maximum (ε): MeOH
[2] = UV absorption maximum of product; format: physicochemical
Protocol: 20 g of (E)-3-(2,4,5-trimethoxyphenyl)acrylic acid (84 mmol; 1 eq.) are dissolved in 100 ml of dimethylformamide in an argon-flushed three-necked flask, and 11.1 g of diisopropylcarbodiimide (88.1 mmol, 1.05 eq.) are added. After 30 min, ascorbic acid (22.2 g, 126 mmol; 1.5 eq.) dissolved in 45 ml of dimethylformamide is added dropwise. After 30 min at 0° C., the mixture is stirred at room temperature for a further 6 hours. The reaction solution is evaporated to dryness, suspended in ethyl acetate/hexane 1:1 and filtered, and the product is precipitated as a pale-yellow solid by addition of hexane (λmax=354 nm).

| λmax [2] | SMILES | specific absorbance at the absorbance maximum (ε) [1] | λmax(MeOH) [1] |
| --- | --- | --- | --- |
| – | CCCCC(CC)COC(=O)/C=C\c1ccc(OC)cc1 (stereo not drawn) [cis-EHMC] | 13,500 | 304 nm |
| 354 nm | COc1cc(OC)c(OC)cc1/C=C/C(=O)OC[C@@H](O)[C@H]1OC(=O)C(O)=C1O [Example 4, (R)-2-((R)-3,4-dihydroxy-5-oxo-2,5-dihydrofuran-2-yl)-2-hydroxyethyl (E)-3-(2,4,5-trimethoxyphenyl)acrylate] | – | – |
| – | CCCCC(CC)COC(=O)/C=C/c1ccc(OC)cc1 (stereo not drawn) [trans-EHMC] | 24,550 | 309 nm |

— patent US8598228B2, “Cinnamic acid ascorbates” (Merck Patent GmbH, priority 2009, dated 2013)
